Measurements from paper PMC11003488 (Journal of Enzyme Inhibition and Medicinal Chemistry, 2023).

What was measured:
A549/ATCC = assay: NCI-60 SRB growth inhibition, one-dose and five-dose; assay type: cell-based; conditions: Homo sapiens
MDA-MB-468 = assay: as above; assay type: cell-based; conditions: Homo sapiens
MALME-3M = assay: as above; assay type: cell-based; conditions: Homo sapiens
CCRF-CEM = assay: as above; assay type: cell-based; conditions: Homo sapiens
SF-539 = assay: as above; assay type: cell-based; conditions: Homo sapiens
DU-145 = assay: as above; assay type: cell-based; conditions: Homo sapiens
HCT-15 = assay: as above; assay type: cell-based; conditions: Homo sapiens
LOX IMVI = assay: as above; assay type: cell-based; conditions: Homo sapiens
K-562 = assay: as above; assay type: cell-based; conditions: Homo sapiens
SNB-19 = assay: as above; assay type: cell-based; conditions: Homo sapiens
IGROV1 = assay: as above; assay type: cell-based; conditions: Homo sapiens
HS 578 T = assay: as above; assay type: cell-based; conditions: Homo sapiens
SK-MEL-2 = assay: as above; assay type: cell-based; conditions: Homo sapiens
SK-MEL-5 = assay: as above; assay type: cell-based; conditions: Homo sapiens
SK-MEL-28 = assay: as above; assay type: cell-based; conditions: Homo sapiens
HL-60(TB) = assay: cells; assay type: cell-based; conditions: Homo sapiens
[1] = test system: NCI 60-cell line panel (full panel); assay: NCI-60 SRB growth inhibition, full panel mean / MG-MID; assay type: cell-based, human
MDA-MB-435 = assay: NCI-60 SRB growth inhibition, one-dose and five-dose; assay type: cell-based; conditions: Homo sapiens
RXF 393 = assay: as above; assay type: cell-based; conditions: Homo sapiens
OVCAR-4 = assay: as above; assay type: cell-based; conditions: Homo sapiens
T-47D = assay: as above; assay type: cell-based; conditions: Homo sapiens, T47D
SF-268 = assay: as above; assay type: cell-based; conditions: Homo sapiens
HCC-2998 = assay: as above; assay type: cell-based; conditions: Homo sapiens
MOLT-4 = assay: as above; assay type: cell-based; conditions: Homo sapiens
U251 = assay: as above; assay type: cell-based; conditions: Homo sapiens
A498 = assay: as above; assay type: cell-based; conditions: Homo sapiens
OVCAR-5 = assay: as above; assay type: cell-based; conditions: Homo sapiens
EKVX = assay: as above; assay type: cell-based; conditions: Homo sapiens
NCI-H226 = assay: as above; assay type: cell-based; conditions: Homo sapiens
OVCAR-3 = assay: as above; assay type: cell-based; conditions: Homo sapiens
CAKI-1 = assay: as above; assay type: cell-based; conditions: Homo sapiens
SR = assay: as above; assay type: cell-based; conditions: Homo sapiens
HOP-92 = assay: as above; assay type: cell-based; conditions: Homo sapiens
PC-3 = assay: as above; assay type: cell-based; conditions: Homo sapiens
OVCAR-8 = assay: as above; assay type: cell-based; conditions: Homo sapiens
MCF7 = assay: as above; assay type: cell-based; conditions: Homo sapiens
BT-549 = assay: as above; assay type: cell-based; conditions: Homo sapiens
KM12 = assay: as above; assay type: cell-based; conditions: Homo sapiens
HOP-62 = assay: as above; assay type: cell-based; conditions: Homo sapiens
COLO 205 = assay: as above; assay type: cell-based; conditions: Homo sapiens
NCI-H522 = assay: as above; assay type: cell-based; conditions: Homo sapiens
HCT-116 = assay: as above; assay type: cell-based; conditions: Homo sapiens
[2] = read-out: percent growth inhibition

## CC(=O)Nc1ccc(/C=C/C(=O)c2cccc(NCc3ccc(C)cc3)c2)cc1 [Compound 5f, (E)-N-(4–(3-(3-((4-methylbenzyl)amino)phenyl)-3-oxoprop-1-en-1-yl)phenyl)acetamide]
A549/ATCC; A549
  GI50: 24.6 µM
A549/ATCC; A549, read-out: percent growth inhibition
  inhibition at 10 µM: 30.5%
MDA-MB-468; MDA-MB-468
  GI50: 4.23 µM
MDA-MB-468; MDA-MB-468, read-out: percent growth inhibition
  inhibition at 10 µM: 85.6%
MALME-3M
  GI50: 12.3 µM
MALME-3M; [2]
  inhibition at 10 µM: 31.1%
CCRF-CEM
  GI50: 2.84 µM
CCRF-CEM; [2]
  inhibition at 10 µM: 87.2%
SF-539; SF-539
  GI50: 9.33 µM
SF-539; SF-539, read-out: percent growth inhibition
  inhibition at 10 µM: 153%
DU-145; DU-145
  GI50: 7.44 µM
DU-145; DU-145, read-out: percent growth inhibition
  inhibition at 10 µM: 62.1%
HCT-15; HCT-15
  GI50: 3.31 µM
HCT-15; HCT-15, read-out: percent growth inhibition
  inhibition at 10 µM: 113%
LOX IMVI
  GI50: 2.97 µM
LOX IMVI; [2]
  inhibition at 10 µM: 157%
K-562; K562
  GI50: 3.04 µM
K-562; K562, read-out: percent growth inhibition
  inhibition at 10 µM: 64.2%
SNB-19; SNB-19
  GI50: 12.4 µM
SNB-19; SNB-19, read-out: percent growth inhibition
  inhibition at 10 µM: 31.4%
IGROV1; IGROV-1
  GI50: 12.9 µM
IGROV1; IGROV-1, read-out: percent growth inhibition
  inhibition at 10 µM: 39%
HS 578 T
  GI50: 15.4 µM
HS 578 T; [2]
  inhibition at 10 µM: 47%
SK-MEL-2; SK-MEL-2
  GI50: 11.5 µM
SK-MEL-2; SK-MEL-2, read-out: percent growth inhibition
  inhibition at 10 µM: 16.5%
SK-MEL-5; SK-MEL-5
  GI50: 7.24 µM
SK-MEL-5; SK-MEL-5, read-out: percent growth inhibition
  inhibition at 10 µM: 49.6%
SK-MEL-28; SK-MEL-28
  GI50: 15.2 µM
SK-MEL-28; SK-MEL-28, read-out: percent growth inhibition
  inhibition at 10 µM: 25%
HL-60(TB); HL-60
  GI50: 3.99 µM
HL-60(TB); HL-60, read-out: percent growth inhibition
  inhibition at 10 µM: 52%
[1]; Homo sapiens, 60 cell, read-out: Full panel GI50 mean
  GI50: 9.25 µM
[1]; mean over NCI-60 panel, single dose 10 µM
  Full panel Mean GI %: 61.75%
MDA-MB-435; MDA-MB-435
  GI50: 6.21 µM
MDA-MB-435; MDA-MB-435, read-out: percent growth inhibition
  inhibition at 10 µM: 35.7%
RXF 393; RXF 393
  GI50: 10.9 µM
RXF 393; RXF 393, read-out: percent growth inhibition
  inhibition at 10 µM: 32.9%
OVCAR-4; OVCAR-4
  GI50: 6.18 µM
OVCAR-4; OVCAR-4, read-out: percent growth inhibition
  inhibition at 10 µM: 56.1%
T-47D
  GI50: 10.2 µM
T-47D; [2]
  inhibition at 10 µM: 86.5%
SF-268; SF-268
  GI50: 4.58 µM
SF-268; SF-268, read-out: percent growth inhibition
  inhibition at 10 µM: 45.8%
HCC-2998; HCC 2998
  GI50: 13.9 µM
HCC-2998; HCC 2998, read-out: percent growth inhibition
  inhibition at 10 µM: 15.2%
MOLT-4; MOLT-4
  GI50: 2.69 µM
MOLT-4; MOLT-4, read-out: percent growth inhibition
  inhibition at 10 µM: 62%
U251; U-251
  GI50: 3.89 µM
U251; U-251, read-out: percent growth inhibition
  inhibition at 10 µM: 127%
A498; A498
  GI50: 17.9 µM
A498; A498, read-out: percent growth inhibition
  inhibition at 10 µM: -0.63%
OVCAR-5; OVCAR-5
  GI50: 18.5 µM
OVCAR-5; OVCAR-5, read-out: percent growth inhibition
  inhibition at 10 µM: 29.2%
EKVX
  GI50: 12.6 µM
EKVX; [2]
  inhibition at 10 µM: 20.9%
NCI-H226; NCI-H226
  GI50: 13.7 µM
NCI-H226; NCI-H226, read-out: percent growth inhibition
  inhibition at 10 µM: 21.8%
OVCAR-3; OVCAR-3
  GI50: 3.19 µM
OVCAR-3; OVCAR-3, read-out: percent growth inhibition
  inhibition at 10 µM: 78%
CAKI-1; CAKI-1
  GI50: 10.8 µM
CAKI-1; CAKI-1, read-out: percent growth inhibition
  inhibition at 10 µM: 23.2%
SR
  GI50: 1.51 µM
SR; [2]
  inhibition at 10 µM: 96.5%
HOP-92; HOP-92
  GI50: 15.5 µM
HOP-92; HOP-92, read-out: percent growth inhibition
  inhibition at 10 µM: 8.52%
PC-3; PC-3
  GI50: 12.7 µM
PC-3; PC-3, read-out: percent growth inhibition
  inhibition at 10 µM: 67.2%
OVCAR-8; OVCAR-8
  GI50: 2.98 µM
OVCAR-8; OVCAR-8, read-out: percent growth inhibition
  inhibition at 10 µM: 88.1%
MCF7; MCF7
  GI50: 3.37 µM
MCF7; MCF7, read-out: percent growth inhibition
  inhibition at 10 µM: 90.5%
BT-549; BT-549
  GI50: 5.26 µM
BT-549; BT-549, read-out: percent growth inhibition
  inhibition at 10 µM: 66%
KM12; KM12
  GI50: 7.04 µM
KM12; KM12, read-out: percent growth inhibition
  inhibition at 10 µM: 136%
HOP-62; HOP-62
  GI50: 13.9 µM
HOP-62; HOP-62, read-out: percent growth inhibition
  inhibition at 10 µM: 13.9%
COLO 205; COLO 205
  GI50: 16 µM
COLO 205; COLO 205, read-out: percent growth inhibition
  inhibition at 10 µM: 53.7%
NCI-H522; NCI-H522
  GI50: 11 µM
NCI-H522; NCI-H522, read-out: percent growth inhibition
  inhibition at 10 µM: 106%
HCT-116; HCT-116, HCT-116, five-dose screening
  GI50: 1.91 µM
HCT-116; HCT-116, read-out: percent growth inhibition
  inhibition at 10 µM: 179%
